Laboratory results from US20220296595A1, “CDK INHIBITORS” (QILU REGOR THERAPEUTICS INC., priority 2019, published 2022).

Assays:
CDK6/CyclinD3 = target: T1, CDK6/CyclinD3 (Homo sapiens, UniProt Q00534); test: Assay for inhibition of CDK6/CyclinD3 (Caliper microfluidic kinase assay); assay type: biochemical; settings: CDK6/CyclinD3, 300 μM ATP
T1 construct: purchased Carna 04-107
In short: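 Caliper mobility-shift readout of FAM-labelled peptide (FL-34, 1 μM) phosphorylation by 2 nM CDK6/CyclinD3 at 300 μM ATP in HEPES pH 7.5 buffer with MgCl2, DTT; 3 h at room temperature, EDTA stop. IC50 from 4-parameter sigmoidal fit.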

CDK4/CyclinD1 = target: T2, CDK4/CyclinD1 (Homo sapiens, UniProt P11802); test: Assay for inhibition of CDK4/CyclinD1 (Caliper microfluidic kinase assay); assay type: biochemical; settings: CDK4/CyclinD1, 200 μM ATP
T2 construct: purchased Thermofisher PR8064A
In short: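 Caliper microfluidic mobility-shift assay tracking phosphorylation of 1 μM FL-34 peptide by 1 nM CDK4/CyclinD1 with 200 μM ATP in HEPES pH 7.5 buffer with 10 mM MgCl2. Reaction ran 3 h at room temperature, was stopped with EDTA, and IC50 came from a 4-parameter sigmoidal fit.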

CDK2/CyclinE1 = target: T3, CDK2/CyclinE1 (Homo sapiens, UniProt P24941); test: Assay for inhibition of CDK2/CyclinE1 (Caliper microfluidic kinase assay); assay type: biochemical; settings: CDK2/CyclinE1, 100 μM ATP; read-out: CDK2 IC50
T3 construct: purchased SignalChem C29-18G
In short: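 Caliper microfluidic mobility-shift assay: 5 nM CDK2/CyclinE1, 100 μM ATP, 5 μM FL-18 peptide (5-FAM-QSPKKG-NH2) in pH 7.5 HEPES buffer with MgCl2, DTT, BSA, Triton X-100. Incubated 3 hours at room temperature, EDTA-stopped; IC50 from 4-parameter sigmoidal fit.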

T47D breast cancer cells = test: Anti-proliferation assay in T47D cell (Cyquant, day 6); assay type: cell-based, human; settings: Homo sapiens, T47D, anti-proliferation, T47D cells; read-out: T47D IC50
In short: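 Cells were grown in RPMI 1640 with 10% FBS at 37 °C and dosed the day after plating at ten concentrations, 10 μM to 0.51 nM in 3-fold steps. CyQuant fluorescence (ex 485/em 535 nm) was read on day 6. IC50 was fitted from baseline-subtracted viability curves, with the baseline read after overnight culture.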

[1] = tested on: phosphorylation of Retinoblastoma Protein (pRb Ser807/811 or Ser780) in T47D cells; test: Inhibition of phosphorylation of retinoblastoma protein (pRb) in T47D cell (ELISA); assay type: cell-based, human; settings: Homo sapiens, T47D, read-out: Phospho T47D Ser807 IC50, pRb Ser807 phosphorylation, T47D cells
In short: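 T47D cells in RPMI 1640 + 10% FBS, adhered overnight, then treated 24 h with 3-fold compound titrations (top concentration […]). Lysates assayed by sandwich ELISA for pRb Ser807/811 or Ser780 with HRP/TMB detection. IC50 from 4-parameter sigmoidal fit.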

T2 sequence (P11802 whole entry): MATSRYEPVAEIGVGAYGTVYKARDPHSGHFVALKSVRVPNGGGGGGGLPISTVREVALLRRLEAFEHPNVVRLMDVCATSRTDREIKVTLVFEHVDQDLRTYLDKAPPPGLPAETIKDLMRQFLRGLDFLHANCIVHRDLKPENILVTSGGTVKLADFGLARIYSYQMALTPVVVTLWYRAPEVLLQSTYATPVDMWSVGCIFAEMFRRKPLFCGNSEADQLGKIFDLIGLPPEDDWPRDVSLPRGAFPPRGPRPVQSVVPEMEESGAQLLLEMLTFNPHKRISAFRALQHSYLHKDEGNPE
T2 sequence (P24385 whole entry partner): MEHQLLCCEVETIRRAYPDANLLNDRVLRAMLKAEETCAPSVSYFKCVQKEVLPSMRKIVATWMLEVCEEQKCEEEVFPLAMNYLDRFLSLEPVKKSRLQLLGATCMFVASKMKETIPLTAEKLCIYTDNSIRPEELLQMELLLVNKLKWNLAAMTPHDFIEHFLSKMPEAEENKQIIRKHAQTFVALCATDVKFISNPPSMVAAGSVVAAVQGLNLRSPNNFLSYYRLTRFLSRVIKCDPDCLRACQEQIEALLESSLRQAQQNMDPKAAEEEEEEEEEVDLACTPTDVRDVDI
T1 sequence (Q00534 whole entry): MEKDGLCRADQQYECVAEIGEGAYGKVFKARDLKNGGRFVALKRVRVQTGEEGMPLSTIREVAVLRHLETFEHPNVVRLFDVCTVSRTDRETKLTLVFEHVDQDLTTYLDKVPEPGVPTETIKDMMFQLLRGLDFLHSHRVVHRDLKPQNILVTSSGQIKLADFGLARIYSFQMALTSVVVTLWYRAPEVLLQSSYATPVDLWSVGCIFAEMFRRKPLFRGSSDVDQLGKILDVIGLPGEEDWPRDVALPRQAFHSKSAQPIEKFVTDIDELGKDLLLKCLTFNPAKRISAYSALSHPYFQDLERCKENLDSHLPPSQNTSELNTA
T1 sequence (P30281 whole entry partner): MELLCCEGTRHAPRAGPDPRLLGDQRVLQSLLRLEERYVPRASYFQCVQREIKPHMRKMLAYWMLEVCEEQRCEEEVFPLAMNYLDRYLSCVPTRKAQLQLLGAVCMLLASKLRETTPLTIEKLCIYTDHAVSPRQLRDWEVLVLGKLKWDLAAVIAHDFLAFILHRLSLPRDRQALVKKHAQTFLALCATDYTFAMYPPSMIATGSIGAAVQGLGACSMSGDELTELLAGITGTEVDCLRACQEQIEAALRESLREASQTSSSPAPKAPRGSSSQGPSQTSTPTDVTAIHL

Structure (SMILES)	IC50 (CDK6/CyclinD3)	IC50 (CDK4/CyclinD1)	IC50 (CDK2/CyclinE1)	IC50 (T47D breast cancer cells)	IC50 [1]
CC(C)c1cnn2ccc(-c3ccnc(Nc4ccc(N5CCC(N6CC(F)C6)CC5=O)cn4)n3)cc12 (stereo not drawn) [compound 162]	10 to 100 nM	< 10 nM	10 to 100 nM	< 100 nM	< 100 nM
CC(C)c1cnn2ccc(-c3ccnc(Nc4ccc(N5CCNC5=O)cn4)n3)cc12 [compound 163]	10 to 100 nM	< 10 nM	10 to 100 nM	< 100 nM	< 100 nM
CC(C)c1cnn2ccc(-c3ccnc(Nc4ccc(N5CCOCC5=O)cc4F)n3)cc12 [compound 164]	10 to 100 nM	< 10 nM	< 10 nM	< 100 nM	< 100 nM
CC(C)c1cnn2ccc(-c3ccnc(Nc4ccc(S(N)(=O)=O)cc4)n3)cc12 [compound 165]	100 to 1000 nM	10 to 100 nM	< 10 nM	< 100 nM	100 to 500 nM
CNC(=O)c1ccc(Nc2nccc(-c3ccn4ncc(C(C)C)c4c3)n2)cc1 [compound 166]	10 to 100 nM	< 10 nM	< 10 nM	< 100 nM	< 100 nM
CC(C)c1cnn2ccc(-c3ccnc(Nc4ccc(C(=O)N(C)C)cc4)n3)cc12 [compound 167]	10 to 100 nM	< 10 nM	< 10 nM	< 100 nM	< 100 nM
CC(C)c1cnn2ccc(-c3ccnc(Nc4ccc(C(N)=O)cc4)n3)cc12 [compound 168]	10 to 100 nM	< 10 nM	< 10 nM	< 100 nM	< 100 nM
CC(C)c1cnn2ccc(-c3ccnc(Nc4ccc(N5CCC(N6CCC6)CC5=O)cn4)n3)cc12 (stereo not drawn) [compound 171]	10 to 100 nM	< 10 nM	< 10 nM	< 100 nM	< 100 nM
CC(C)c1cnn2ccc(-c3ccnc(Nc4ccc(N5CCC(N(C)C)CC5=O)cc4)n3)cc12 (stereo not drawn) [compound 172]	< 10 nM	< 10 nM	< 10 nM	< 100 nM	< 100 nM
CC(C)c1cnn2ccc(-c3ccnc(Nc4ccc(N5CCCNC5=O)cc4)n3)cc12 [compound 173]	< 10 nM	< 10 nM	10 to 100 nM	< 100 nM	< 100 nM
CCN(CC)C1CCN(c2ccc(Nc3nccc(-c4ccn5ncc(C(C)C)c5c4)n3)nc2)C(=O)C1 (stereo not drawn) [compound 176]	10 to 100 nM	< 10 nM	10 to 100 nM	< 100 nM	< 100 nM
CC(C)c1cnn2ccc(-c3ccnc(Nc4ccc(N5CCC=CC5=O)cn4)n3)cc12 [compound 184]	10 to 100 nM	< 10 nM	10 to 100 nM	< 100 nM	< 100 nM
CC(C)c1cnn2ccc(-c3ccnc(Nc4ccc(C(=O)N5CCC(NC6CC6)C5)cc4)n3)cc12 (stereo not drawn) [compound 191]	10 to 100 nM	< 10 nM	< 10 nM	< 100 nM	< 100 nM
Cc1nn2ccc(-c3ccnc(Nc4ccc(N5CCNCC5=O)cn4)n3)cc2c1C(C)C [compound 192]	10 to 100 nM	< 10 nM	10 to 100 nM	< 100 nM	< 100 nM
CC1CC(=O)N(c2ccc(Nc3ncc(F)c(-c4ccn5ncc(C(C)C)c5c4)n3)nc2)CCN1 (stereo not drawn) [compound 193]	10 to 100 nM	< 10 nM	10 to 100 nM	< 100 nM	< 100 nM
CC1CN(c2ccc(Nc3ncc(F)c(-c4ccn5ncc(C(C)C)c5c4)n3)nc2)C(=O)CCN1 (stereo not drawn) [compound 194]	10 to 100 nM	< 10 nM	10 to 100 nM	100 to 500 nM	< 100 nM
O=C1CCNCCN1c1ccc(Nc2ncc(F)c(-c3ccn4ncc(C5CC5)c4c3)n2)nc1 [compound 195]	10 to 100 nM	< 10 nM	100 to 1000 nM	< 100 nM	< 100 nM
CC(C)c1cnn2ccc(-c3ccnc(Nc4ccc(N5CCC(C)(N)CC5=O)cn4)n3)cc12 (stereo not drawn) [compound 196]	10 to 100 nM	< 10 nM	< 10 nM	< 100 nM	< 100 nM

Structure (SMILES)	IC50 (CDK6/CyclinD3)	IC50 (CDK4/CyclinD1)	IC50 (CDK2/CyclinE1)	IC50 (T47D breast cancer cells)	IC50 [1]
CC(C)(C)c1cnn2ccc(-c3ccnc(Nc4ccc(N5CCNCCC5=O)cn4)n3)cc12 [compound 197]	10 to 100 nM	< 10 nM	10 to 100 nM	< 100 nM	< 100 nM
CC(C)c1cnn2ccc(-c3nc(Nc4ccc(N5C(=O)CC6CC5CN6)cn4)ncc3F)cc12 (stereo not drawn) [compound 198]	10 to 100 nM	< 10 nM	10 to 100 nM	< 100 nM	< 100 nM
CC(C)c1cnn2ccc(-c3nc(Nc4ccc(N5CC6CCC(CC5=O)N6)cn4)ncc3F)cc12 (stereo not drawn) [compound 199]	< 10 nM	< 10 nM	10 to 100 nM	< 100 nM	< 100 nM
CC(C)c1cnn2ccc(-c3ccnc(Nc4ccc(N5CCC(N6CCNCC6)CC5=O)cn4)n3)cc12 (stereo not drawn) [compound 200]	10 to 100 nM	< 10 nM	10 to 100 nM	< 100 nM	< 100 nM
CC(C)c1cnn2ccc(-c3ccnc(Nc4ccc(N5CCC(C)(N)CC5=O)cc4)n3)cc12 (stereo not drawn) [compound 202]	< 10 nM	< 10 nM	< 10 nM	< 100 nM	< 100 nM
CC(C)c1cnn2ccc(-c3ccnc(Nc4ccc(N5CCC(N)CC5=O)cn4)n3)cc12 (stereo not drawn) [compound 203]	10 to 100 nM	< 10 nM	< 10 nM	< 100 nM	< 100 nM
CC(C)c1cnn2ccc(-c3ccnc(Nc4ccc(N5CCCC(N)C5=O)cn4)n3)cc12 (stereo not drawn) [compound 207]	< 10 nM	< 10 nM	10 to 100 nM	< 100 nM	< 100 nM
CC(C)c1cnn2ccc(-c3ccnc(Nc4ccc(N5CCCC(N)C5=O)cc4)n3)cc12 (stereo not drawn) [compound 214]	< 10 nM	< 10 nM	< 10 nM	< 100 nM	< 100 nM
CC(C)c1cnn2ccc(-c3ccnc(Nc4ccc(N5CCN(C6COC6)CC5=O)cn4)n3)cc12 [compound 234]	10 to 100 nM	< 10 nM	10 to 100 nM	< 100 nM	< 100 nM
CCN1CCN(c2ccc(Nc3nccc(-c4ccn5ncc(C(C)C)c5c4)n3)nc2)C(=O)C1 [compound 235]	10 to 100 nM	< 10 nM	10 to 100 nM	< 100 nM	< 100 nM
CC(C)c1cnn2ccc(-c3ccnc(Nc4ccc(N5CCN(S(C)(=O)=O)CCC5=O)cn4)n3)cc12 [compound 236]	< 10 nM	< 10 nM	10 to 100 nM	< 100 nM	< 100 nM
CC(C)c1cnn2ccc(-c3ccnc(Nc4ccc(N5CCN(CCO)CC5=O)cn4)n3)cc12 [compound 237]	10 to 100 nM	< 10 nM	10 to 100 nM	< 100 nM	< 100 nM
CC(C)n1cnc2c1CN(c1ccnc(Nc3ccc(N4CCCNC4=O)cn3)n1)CC2 [compound 242]	10 to 100 nM	< 10 nM	100 to 1000 nM	500 to 1000 nM	< 100 nM
CC(C)n1cnc2c1CN(c1ccnc(Nc3ccc(N4CCC(C)(N)CC4=O)cn3)n1)CC2 (stereo not drawn) [compound 244]	100 to 1000 nM	< 10 nM	10 to 100 nM	500 to 1000 nM	500 to 1000 nM
CC(C)n1cnc2c1CN(c1ccnc(Nc3ccc(N4CCC(N(C)C)CC4=O)cn3)n1)CC2 (stereo not drawn) [compound 245]	100 to 1000 nM	< 10 nM	10 to 100 nM	500 to 1000 nM	100 to 500 nM
CC1(N)CCN(c2ccc(Nc3nccc(-c4cc(F)c5c(c4)C(C)(C)CO5)n3)nc2)C(=O)C1 (stereo not drawn) [compound 258]	10 to 100 nM	< 10 nM	10 to 100 nM	< 100 nM	< 100 nM
CN(C)C1CCN(c2ccc(Nc3nccc(-c4cc(F)c5c(c4)C(C)(C)CO5)n3)nc2)C(=O)C1 (stereo not drawn) [compound 259]	10 to 100 nM	< 10 nM	10 to 100 nM	< 100 nM	< 100 nM
CC(C)n1cnc2c(F)nc(-c3ccnc(Nc4ccc(N5CCC(N(C)C)CC5=O)cn4)n3)cc21 (stereo not drawn) [compound 270]	< 10 nM	< 10 nM	10 to 100 nM	< 100 nM	< 100 nM
